Measurements: paper PMC3037362, “Small Molecule Inhibitors of Staphylococcus aureus RnpA Alter Cellular mRNA Turnover, Exhibit Antimicrobial Activity, and Attenuate Pathogenesis” (PLoS Pathogens, 2011)

Assays:
[1] = biological target: T1, RNase III (Escherichia coli, UniProt P0A7Y0); assay: in vitro ribonuclease activity of commercial enzyme (off-target counter-assay, data not shown); type: biochemical
T1 construct: gene rnc

[2] = biological target: T2, RnpA (protein component of ribonuclease P) (Staphylococcus aureus, UniProt P0A0H5); assay: RiboGreen fluorescence RNA degradation screen; agarose gel titration of spa mRNA degradation by purified RnpA; type: biochemical
T2 construct: recombinant full-length predicted open reading frame, N-terminal hexahistidine tag
T2 sequence (P0A0H5 whole entry): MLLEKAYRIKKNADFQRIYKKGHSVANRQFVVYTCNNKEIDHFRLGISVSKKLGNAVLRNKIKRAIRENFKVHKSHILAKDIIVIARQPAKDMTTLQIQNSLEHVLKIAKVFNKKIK
Text: RiboGreen fluorescence RNA degradation screen; agarose gel titration of spa mRNA degradation by purified RnpA on RnpA (protein component of ribonuclease P) | five of these molecules were bona-fide inhibitors of RnpA-mediated RNA degradation (Figure 3B). One of these compounds, RNPA1000

T1 sequence (P0A7Y0 whole entry): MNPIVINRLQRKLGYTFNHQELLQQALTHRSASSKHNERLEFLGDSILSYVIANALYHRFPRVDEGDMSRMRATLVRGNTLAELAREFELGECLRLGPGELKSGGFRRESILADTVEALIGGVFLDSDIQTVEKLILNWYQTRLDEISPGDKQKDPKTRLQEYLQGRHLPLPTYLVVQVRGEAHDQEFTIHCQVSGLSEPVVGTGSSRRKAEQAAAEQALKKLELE

Cc1cc(/C=C(/C#N)C(=O)Nc2cccc(Br)c2)c(C)n1-c1ccc(C(=O)O)cc1 [RNPA1000]
IC50 [1]: 500 to 750 µM
IC50 [2]: 100 to 125 µM
